Experimental data reported in PMC1470342 (Environmental Health Perspectives, 1997).

Columns and labels:
[1] = target: T1, Gal4-human ER chimera (Gal4-HEGO) (Homo sapiens, UniProt P03372); experiment: Recombinant receptor/reporter gene assay; assay type: cell-based
T1 sequence (P03372 311-547 limits assumed): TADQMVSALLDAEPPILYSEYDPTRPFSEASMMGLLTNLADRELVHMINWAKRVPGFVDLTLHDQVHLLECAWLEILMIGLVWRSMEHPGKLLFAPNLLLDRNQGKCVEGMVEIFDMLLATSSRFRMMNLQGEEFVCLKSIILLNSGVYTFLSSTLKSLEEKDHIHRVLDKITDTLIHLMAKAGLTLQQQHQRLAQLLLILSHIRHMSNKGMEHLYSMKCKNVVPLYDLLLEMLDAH

ovariectomized CD-1 mice [2] = experiment: Vaginal cell cornification assay; assay type: in vivo, mouse; conditions: 202, 16 and 1.7 mg/kg
MCF-7 cells = experiment: GC-MS analysis of media from PCB 104-treated transfected MCF-7 cells; conditions: MCF-7 cells incubated with PCB 104 for 8, 24, 48 hr; SIM GC-MS
ovariectomized CD-1 mice [3] = experiment: Mouse uterotrophic assay; assay type: in vivo; conditions: 202 mg/kg, p < 0.0002
[4] = co-treatment 1 nM E2 plus 0.1, 1, 10 pM (printed)

Compound | effect on E2-induced luciferase activity compared to E2 alone ([1]; co-treatment 1 nM E2 plus 10 pM (printed; 10 microM in abstract)) | effect on E2-induced luciferase activity compared to E2 alone [1, 4] | vaginal cell cornification, dose response (ovariectomized CD-1 mice [2]) | presence of metabolite HO-PCB 104 or hydroxylated isomers in media extracts (MCF-7 cells) | uterine wet weight versus vehicle control (ovariectomized CD-1 mice [3]) | estrogenic activity in reporter gene assay ([1]; alone, 24 hr)
Oc1cc(Cl)c(-c2c(Cl)cc(Cl)cc2Cl)c(Cl)c1 [HO-PCB 104, 2,4,6,2',6'-pentachloro-4-biphenylol] | additivity | – | – | – | – | –
Clc1cc(Cl)c(-c2c(Cl)cccc2Cl)c(Cl)c1 [PCB 104, 2,4,6,2',6'-pentachlorobiphenyl] | – | no effect | induced vaginal epithelial cell cornification | failed to detect | increased uterine wet weight | –
Clc1cc(Cl)c(-c2c(Cl)cc(Cl)cc2Cl)c(Cl)c1 [PCB 155, 2,4,6,2',4',6'-hexachlorobiphenyl] | – | significant antiestrogenic activity | – | – | – | minimal
